Earlier results on one compound are cited in patent US7138151B2, “Calcium-fortified acidic beverages” (Unilab Pharmatech, Ltd., priority 2002, dated 2006).

Each structure is given as a SMILES string. Some results are limits rather than exact numbers.

For the data set the following is noted: initially clear metastable solution from citric acid and calcium base.

Turning to `O=C([O-])CC(O)(CC(=O)[O-])C(=O)[O-].O=C([O-])CC(O)(CC(=O)[O-])C(=O)[O-].[Ca+2].[Ca+2].[Ca+2]` [in-situ solubilized calcium citrate, calcium citrate], the “time at which calcium citrate starts to precipitate out of solution” value was at most 24 h.
